ChEMBL document CHEMBL1125505, “Nucleosides and nucleotides. 112. 2-(1-Hexyn-1-yl)adenosine-5'-uronamides: a new entry of selective A2 adenosine receptor agonists with potent antihypertensive activity” (J Med Chem, 1992)
pKi: −log10 of the molar value.

Key:
Rattus norvegicus [1] = assay: Dose producing 10% decrease in heart rate of anesthetized spontaneously hypertensive rats (SHR's); format: functional
Rattus norvegicus [2] = assay: Dose producing 30% decrease in blood pressure of anesthetized spontaneously hypertensive rats (SHR's); format: functional
Adenosine receptor A1 = target: T1, Adenosine receptor A1 (Rattus norvegicus, UniProt P25099); assay: Binding affinity against adenosine A1 receptor from rat brain membranes using [3H]cyclohexyladenosine as radioligand.
T1 sequence (P25099 whole entry): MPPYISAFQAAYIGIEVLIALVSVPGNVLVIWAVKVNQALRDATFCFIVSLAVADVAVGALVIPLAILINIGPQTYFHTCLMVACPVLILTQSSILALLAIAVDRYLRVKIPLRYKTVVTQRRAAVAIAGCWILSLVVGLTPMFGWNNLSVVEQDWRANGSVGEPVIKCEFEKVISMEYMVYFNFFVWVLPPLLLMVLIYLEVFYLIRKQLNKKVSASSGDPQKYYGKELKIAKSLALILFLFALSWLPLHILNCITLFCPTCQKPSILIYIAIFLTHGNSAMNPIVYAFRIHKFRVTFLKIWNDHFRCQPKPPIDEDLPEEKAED

Adenosine A2 receptor = Adenosine A2 receptor (Rattus norvegicus, UniProt P29276+P30543); format: protein assay

| SMILES | ED10 (Rattus norvegicus [1]) [µg/kg] | ED30 (Rattus norvegicus [2]) [µg/kg] | pKi (Adenosine receptor A1) | Ki (Adenosine A2 receptor) [nM] |
| --- | --- | --- | --- | --- |
| CCNC(=O)[C@H]1O[C@@H](n2cnc3c(N)ncnc32)[C@H](O)[C@@H]1O [NECA] | 0.35 | 0.23 | – | – |
| CCCCC#Cc1nc(N)c2ncn(C3O[C@H](C(=O)NC)[C@@H](O)[C@H]3O)c2n1 (some centres undefined) | > 100 | 0.51 | 5.75 | 11 |
| COc1cc(OC)cc(C(CNc2ncnc3c2ncn3[C@@H]2O[C@H](CO)[C@@H](O)[C@H]2O)c2ccccc2C)c1 (some centres undefined) | > 100 | 12.3 | 7.19 | 4.6 |
| CCCCC#Cc1nc(N)c2ncn([C@@H]3O[C@H](C(=O)NC4CC4)[C@@H](O)[C@H]3O)c2n1 | 40.7 | 0.17 | 6.87 | 2.6 |
| CCCCCCC#Cc1nc(N)c2ncn([C@@H]3O[C@H](CO)[C@@H](O)[C@H]3O)c2n1 | > 100 | 0.35 | 6.93 | 6.1 |
| Nc1nc(Nc2ccccc2)nc2c1ncn2[C@@H]1O[C@H](CO)[C@@H](O)[C@H]1O | > 100 | 6.1 | – | 83 |
| CCCCC#Cc1nc(N)c2ncn([C@@H]3O[C@H](CO)[C@@H](O)[C@H]3O)c2n1 | 70.4 | 0.11 | 6.99 | – |
| CCCCC#Cc1nc(N)c2ncn(C3O[C@H](C(=O)NCCC)[C@@H](O)[C@H]3O)c2n1 (some centres undefined) | > 100 | 2.88 | 5.74 | 44 |
| CCCCC#Cc1nc(N)c2ncn(C3O[C@H](CNC=O)[C@@H](O)[C@H]3O)c2n1 (some centres undefined) | > 100 | > 100 | < 6.33 | > 181 |
| CC(=O)O[C@]1(C(C)=O)CC[C@H]2[C@@H]3C=C(Cl)C4=CC(=O)[C@@H]5C[C@@H]5[C@]4(C)[C@H]3CC[C@@]21C [CYPROTERONE ACETATE] | 0.17 | 0.53 | – | 336 |
| CCNC(=O)[C@H]1O[C@@H](n2cnc3c(N)nc(NCCc4ccc(CCC(=O)O)cc4)nc32)[C@H](O)[C@@H]1O [CGS-21680] | > 100 | 0.83 | – | – |
| CCCCC#Cc1nc(N)c2ncn([C@@H]3O[C@H](C(N)=O)[C@@H](O)[C@H]3O)c2n1 | > 100 | 0.18 | 5.90 | 19 |
| CCCCC#Cc1nc(N)c2ncn(C3O[C@H](C/N=C(\S)NC)[C@@H](O)[C@H]3O)c2n1 (some centres undefined) | > 100 | 54.5 | < 6.33 | > 181 |
| CCCCC#Cc1nc(N)c2ncn([C@@H]3O[C@H](C(=O)NCCCC)[C@@H](O)[C@H]3O)c2n1 | > 100 | 26.4 | 5.71 | 169 |
| CCCCC#Cc1nc(N)c2ncn(C3O[C@H](CNS(C)(=O)=O)[C@@H](O)[C@H]3O)c2n1 (some centres undefined) | > 100 | > 100 | < 6.33 | > 181 |
| CCCCC#Cc1nc(N)c2ncn([C@@H]3O[C@H](CCl)[C@@H](O)[C@H]3O)c2n1 | > 3 | > 3 | 6.66 | 5.2 |
| CCCCC#Cc1nc(N)c2ncn(C3O[C@H](CNC(=O)NC)[C@@H](O)[C@H]3O)c2n1 (some centres undefined) | > 100 | > 100 | < 6.33 | > 181 |
| CCCCC#Cc1nc(N)c2ncn([C@@H]3O[C@H](C(=O)NCC)[C@@H](O)[C@H]3O)c2n1 | > 100 | 0.3 | 6.56 | 4.8 |
| CCCCC#Cc1nc(N)c2ncn(C3O[C@H](CNC(C)=O)[C@@H](O)[C@H]3O)c2n1 (some centres undefined) | > 100 | > 100 | < 6.33 | > 181 |
